Test results as given in ChEMBL document CHEMBL5154644, “Design, Synthesis, and Structure-Activity Relationship Optimization of Pyrazolopyrimidine Amide Inhibitors of Phosphoinositide 3-Kinase γ (PI3Kγ)” (J Med Chem, 2022).

Legend:
Homo sapiens [1] = species: Homo sapiens; assay: Selectivity ratio of IC50 for inhibition of PI3Kdelta (unknown origin) to IC50 for inhibition of PI3Kgamma (unknown origin)
[2] = target: T1, Phosphatidylinositol 4,5-bisphosphate 3-kinase catalytic subunit gamma isoform (Homo sapiens, UniProt P48736); assay: Inhibition of PI3Kgamma (unknown origin) in […] stimulated human THP-1 cells assessed as reduction in Akt phosphorylation level at Ser473 residue preincubated for 60 mins followed by rhMCP-1 stimulation and measured after 2 mins by AlphaLisa assay; assay type: cell-based
T1 sequence (P48736 whole entry, canonical isoform): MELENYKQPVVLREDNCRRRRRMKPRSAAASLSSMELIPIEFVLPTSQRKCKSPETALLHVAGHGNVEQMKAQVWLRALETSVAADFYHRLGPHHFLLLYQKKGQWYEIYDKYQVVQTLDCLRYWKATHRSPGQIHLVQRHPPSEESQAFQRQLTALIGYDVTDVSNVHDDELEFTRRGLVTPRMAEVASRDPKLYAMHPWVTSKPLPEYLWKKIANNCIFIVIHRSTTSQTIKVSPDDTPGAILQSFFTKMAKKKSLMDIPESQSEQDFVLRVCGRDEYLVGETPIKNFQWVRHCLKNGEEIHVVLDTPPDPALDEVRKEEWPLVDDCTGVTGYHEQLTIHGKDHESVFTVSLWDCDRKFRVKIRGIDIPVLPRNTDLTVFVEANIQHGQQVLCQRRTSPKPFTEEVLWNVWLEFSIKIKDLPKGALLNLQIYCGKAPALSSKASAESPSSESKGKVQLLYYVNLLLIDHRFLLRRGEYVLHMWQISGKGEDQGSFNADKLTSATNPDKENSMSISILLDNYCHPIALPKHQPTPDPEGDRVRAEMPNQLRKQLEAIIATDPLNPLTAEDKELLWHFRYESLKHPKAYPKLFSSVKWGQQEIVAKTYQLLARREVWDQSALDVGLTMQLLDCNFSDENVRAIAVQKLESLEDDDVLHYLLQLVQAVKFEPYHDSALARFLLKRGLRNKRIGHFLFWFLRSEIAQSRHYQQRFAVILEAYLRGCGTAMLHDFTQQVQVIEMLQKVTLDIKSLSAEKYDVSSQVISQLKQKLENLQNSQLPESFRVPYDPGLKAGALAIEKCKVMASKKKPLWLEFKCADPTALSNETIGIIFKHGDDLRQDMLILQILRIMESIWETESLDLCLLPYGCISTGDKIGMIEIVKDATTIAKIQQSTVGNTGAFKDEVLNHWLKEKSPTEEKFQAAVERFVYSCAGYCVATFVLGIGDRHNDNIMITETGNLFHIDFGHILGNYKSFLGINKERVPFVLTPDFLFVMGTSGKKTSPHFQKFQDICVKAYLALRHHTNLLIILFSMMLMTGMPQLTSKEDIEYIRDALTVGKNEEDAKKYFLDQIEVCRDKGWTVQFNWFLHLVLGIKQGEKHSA

[3] = Metabolic stability in human hepatocytes assessed as intrinsic clearance per 10^6 cells at 0.5 uM by LC-MS/MS analysis; assay type: ADME, cell-based, Hepatocyte; details: read-out: CLH
[4] = target: T2, Phosphatidylinositol 4,5-bisphosphate 3-kinase catalytic subunit delta isoform (Homo sapiens, UniProt O00329); assay: Inhibition of PI3Kdelta (unknown origin) using PIP2 as substrate preincubated for 1 hr followed by substrate addition and measured after 60 mins in presence of ATP by ADP-glo assay
T2 sequence (O00329 whole entry): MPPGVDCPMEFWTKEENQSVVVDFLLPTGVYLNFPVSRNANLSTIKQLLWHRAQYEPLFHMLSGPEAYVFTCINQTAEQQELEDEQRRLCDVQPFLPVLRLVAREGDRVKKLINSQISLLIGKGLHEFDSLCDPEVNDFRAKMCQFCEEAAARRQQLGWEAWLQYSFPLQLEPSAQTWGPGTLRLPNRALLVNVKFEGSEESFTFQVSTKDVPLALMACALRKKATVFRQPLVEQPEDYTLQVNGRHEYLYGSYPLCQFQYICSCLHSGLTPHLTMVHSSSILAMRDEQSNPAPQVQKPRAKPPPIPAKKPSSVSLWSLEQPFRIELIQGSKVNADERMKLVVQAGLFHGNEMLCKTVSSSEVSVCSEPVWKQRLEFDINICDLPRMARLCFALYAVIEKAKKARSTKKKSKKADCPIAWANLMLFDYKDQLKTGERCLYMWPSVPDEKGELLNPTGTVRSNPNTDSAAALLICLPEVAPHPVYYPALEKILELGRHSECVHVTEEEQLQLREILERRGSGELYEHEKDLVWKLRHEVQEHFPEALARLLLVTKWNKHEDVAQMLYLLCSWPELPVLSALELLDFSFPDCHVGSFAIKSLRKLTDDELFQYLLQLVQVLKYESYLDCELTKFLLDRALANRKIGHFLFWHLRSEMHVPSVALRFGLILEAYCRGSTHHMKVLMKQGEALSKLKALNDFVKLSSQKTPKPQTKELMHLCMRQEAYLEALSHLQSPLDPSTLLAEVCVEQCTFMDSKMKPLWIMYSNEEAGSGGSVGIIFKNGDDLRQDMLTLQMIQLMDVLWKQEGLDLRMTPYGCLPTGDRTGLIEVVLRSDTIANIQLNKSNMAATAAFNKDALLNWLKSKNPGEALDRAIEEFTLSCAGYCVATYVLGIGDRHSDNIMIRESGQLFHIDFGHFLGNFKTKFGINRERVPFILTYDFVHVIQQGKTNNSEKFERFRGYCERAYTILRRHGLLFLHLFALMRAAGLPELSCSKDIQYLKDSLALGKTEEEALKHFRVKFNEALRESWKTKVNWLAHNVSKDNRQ

[5] = target: Phosphatidylinositol 4,5-bisphosphate 3-kinase catalytic subunit alpha isoform (Homo sapiens, UniProt P42336); assay: Inhibition of PI3Kalpha (unknown origin) using PIP2 as substrate preincubated for 1 hr followed by substrate addition and measured after 60 mins in presence of ATP by ADP-glo assay
Sequence of Phosphatidylinositol 4,5-bisphosphate 3-kinase catalytic subunit alpha isoform (P42336 whole entry, canonical isoform): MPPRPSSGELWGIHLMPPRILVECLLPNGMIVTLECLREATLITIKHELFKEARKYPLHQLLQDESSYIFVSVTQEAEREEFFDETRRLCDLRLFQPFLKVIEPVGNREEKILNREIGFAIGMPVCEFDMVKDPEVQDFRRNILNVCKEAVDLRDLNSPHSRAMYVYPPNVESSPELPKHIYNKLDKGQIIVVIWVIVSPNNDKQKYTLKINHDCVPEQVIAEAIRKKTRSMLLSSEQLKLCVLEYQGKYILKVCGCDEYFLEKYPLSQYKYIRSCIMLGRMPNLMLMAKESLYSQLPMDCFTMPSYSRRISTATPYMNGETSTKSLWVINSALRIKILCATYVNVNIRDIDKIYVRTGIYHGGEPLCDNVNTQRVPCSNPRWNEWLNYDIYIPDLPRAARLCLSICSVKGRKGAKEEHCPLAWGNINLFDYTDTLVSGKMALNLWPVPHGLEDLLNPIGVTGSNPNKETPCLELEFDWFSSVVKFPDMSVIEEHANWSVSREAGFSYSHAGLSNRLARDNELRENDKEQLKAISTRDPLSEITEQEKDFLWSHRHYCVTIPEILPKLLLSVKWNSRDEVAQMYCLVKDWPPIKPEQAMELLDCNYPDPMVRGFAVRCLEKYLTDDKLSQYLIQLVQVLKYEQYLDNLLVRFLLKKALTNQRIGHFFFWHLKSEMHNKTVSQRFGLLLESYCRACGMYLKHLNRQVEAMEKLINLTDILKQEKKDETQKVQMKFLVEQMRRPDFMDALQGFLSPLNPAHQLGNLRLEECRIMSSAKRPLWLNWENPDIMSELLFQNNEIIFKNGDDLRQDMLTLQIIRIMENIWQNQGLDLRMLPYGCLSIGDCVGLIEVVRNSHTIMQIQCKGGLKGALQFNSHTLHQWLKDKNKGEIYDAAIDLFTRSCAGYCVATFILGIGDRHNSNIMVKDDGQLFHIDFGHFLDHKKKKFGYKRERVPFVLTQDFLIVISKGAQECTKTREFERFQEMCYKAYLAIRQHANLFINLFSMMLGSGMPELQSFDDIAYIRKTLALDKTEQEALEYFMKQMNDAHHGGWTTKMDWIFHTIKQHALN

CYP3A4 = CYP3A4 (Homo sapiens, UniProt P08684); assay: in vitro; details: human liver microsomes, probe midazolam
Sequence of CYP3A4 (P08684 whole entry, canonical isoform): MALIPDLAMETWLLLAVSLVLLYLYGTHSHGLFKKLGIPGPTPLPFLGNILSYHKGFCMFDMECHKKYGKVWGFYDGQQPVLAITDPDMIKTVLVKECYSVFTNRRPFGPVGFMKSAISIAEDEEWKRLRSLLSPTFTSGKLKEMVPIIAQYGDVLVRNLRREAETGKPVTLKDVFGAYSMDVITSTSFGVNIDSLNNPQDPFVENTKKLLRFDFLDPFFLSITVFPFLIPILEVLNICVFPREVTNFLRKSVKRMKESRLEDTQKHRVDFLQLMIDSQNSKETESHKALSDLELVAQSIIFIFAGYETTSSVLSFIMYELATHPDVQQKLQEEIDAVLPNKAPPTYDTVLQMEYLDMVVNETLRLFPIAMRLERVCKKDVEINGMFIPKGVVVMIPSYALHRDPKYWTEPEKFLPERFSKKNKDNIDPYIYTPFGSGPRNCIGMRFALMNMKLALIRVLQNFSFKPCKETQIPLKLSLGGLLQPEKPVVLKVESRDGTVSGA
Description: Time dependent inhibition of CYP3A4 in human liver microsomes at 10 uM using midazolam as substrate preincubated for 30 mins in presence of NADPH by LC/MS/MS analysis relative to control

[6] = target: T1, Phosphatidylinositol 4,5-bisphosphate 3-kinase catalytic subunit gamma isoform; assay: Inhibition of PI3Kgamma (unknown origin) using PIP2 as substrate preincubated for 1 hr followed by substrate addition and measured after 60 mins in presence of ATP by ADP-glo assay
Homo sapiens [7] = species: Homo sapiens; assay: Selectivity ratio of IC50 for inhibition of PI3Kalpha (unknown origin) to IC50 for inhibition of PI3Kgamma (unknown origin)
[8] = Metabolic stability in rat hepatocyte assessed as intrinsic clearance per 10^8 cells at 0.5 uM by LC-MS/MS analysis; assay type: ADME, cell-based; details: hepatocytes
[9] = Hepatic clearance in Sprague-Dawley rat by LC-MS/MS analysis; assay type: ADME; details: in vivo

SMILES	Ratio IC50 (Homo sapiens [1])	IC50 [2]	hepatocyte CLint at 0.5 µM [3]	IC50 [4]	IC50 [5]	inhibition at 30 min, 10 µM (CYP3A4)	IC50 [6]	Ratio IC50 (Homo sapiens [7])	hepatocyte intrinsic clearance [8]	CLH [9]
COc1cc(-c2ccn3nc(N)c(C(=O)NC4CC4)c3n2)cc2c1C(=O)N([C@@H](C)C1CC1)C2	122	121 nM	1.81 µL/min/1e6 cells	459 nM	281 nM	28%	3.8 nM	74	2.07 µL/min	
C[C@@H](C1CC1)N1Cc2cc(-c3ccn4nc(N)c(C(=O)NC5CC5)c4n3)cc(Cl)c2C1=O	589	103 nM	< 1.2 µL/min/1e6 cells	1430 nM	686 nM	36%	2.4 nM	282	2.89 µL/min	
Cc1cc(-c2ccn3ncc(-c4cnn(C)c4)c3n2)cc2c1C(=O)N([C@@H](C)C1CC1)C2		468 nM	27.2 µL/min/1e6 cells			67%			10.3 µL/min	
Cc1cc(-c2ccn3nc(N)c(C(=O)N[C@H]4CC[C@H](N)CC4)c3n2)cc2c1C(=O)N([C@@H](C)C1CC1)C2	2250	276 nM	4.74 µL/min/1e6 cells	4530 nM	> 10000 nM		2 nM	> 4960	19.3 µL/min	
CNS(=O)(=O)c1cc(-c2ccn3nc(N)c(C(=O)N[C@@H](CO)C4CC4)c3n2)cc2c1C(=O)N([C@@H](C)C(F)(F)F)C2	65	96 nM	1.61 µL/min/1e6 cells	86 nM	363 nM		1.3 nM	274	3.82 µL/min	
Cc1cc(-c2ccn3nc(N)c(C(=O)NC4CC4)c3n2)cc2c1C(=O)N(CC1CC1)C2	84	258 nM		911 nM	431 nM		10.1 nM	42		
Cc1cc(-c2ccn3nc(N)c(C(=O)N[C@H]4CCOC4)c3n2)cc2c1C(=O)N([C@@H](C)C1CC1)C2	352	148 nM	9.35 µL/min/1e6 cells	598 nM	974 nM		1.8 nM	580	13 µL/min	130 mL/min/kg
Cc1cc(-c2ccn3nc(N)c(C(=O)NC4CC4)c3n2)cc2c1C(=O)N([C@@H](C1CC1)C(F)(F)F)C2	> 566	795 nM		> 10000 nM	> 10000 nM		17.7 nM	> 566		
CC(C)S(=O)(=O)c1cc(-c2ccn3nc(N)c(C(=O)NC4CC4)c3n2)cc2c1C(=O)N([C@@H](C)C1CC1)C2			2.43 µL/min/1e6 cells	714 nM	952 nM				< 1.2 µL/min	28.3 mL/min/kg
C[C@@H](C1CC1)N1Cc2cc(-c3ccn4nc(N)c(C(=O)NC5CC5)c4n3)cc(OC(F)F)c2C1=O	907	71 nM	40.4 µL/min/1e6 cells	2120 nM	602 nM	16%	1.8 nM	330	12.6 µL/min	
Cc1cc(-c2ccn3nc(N)c(C(=O)N[C@H]4CC[C@@](C)(O)CC4)c3n2)cc2c1C(=O)N([C@@H](C)C1CC1)C2	> 2090	102 nM	< 1.2 µL/min/1e6 cells	> 10000 nM	> 10000 nM		4.8 nM	> 2090	11.6 µL/min	33 mL/min/kg
C[C@H](N1Cc2cc(-c3ccn4nc(N)c(C(=O)NC5CC5)c4n3)cc(NS(C)(=O)=O)c2C1=O)C(F)(F)F	89	16 nM	< 1.2 µL/min/1e6 cells	68 nM	97 nM	14%	0.8 nM		< 1.2 µL/min	
CNS(=O)(=O)c1cc(-c2ccn3nc(N)c(C(=O)N[C@H]4CC[C@](C)(O)CC4)c3n2)cc2c1C(=O)N([C@@H](C)C(F)(F)F)C2	22	32 nM	2.77 µL/min/1e6 cells	20 nM	49 nM		0.9 nM	53	< 1.2 µL/min	
CCN1Cc2cc(-c3ccn4nc(N)c(C(=O)NC5CC5)c4n3)cc(C)c2C1=O	32	338 nM		179 nM	118 nM		5.6 nM	21		
Cc1cc(-c2ccn3nc(N)c(-c4cnn(C)c4)c3n2)cc2c1C(=O)N([C@@H](C)C1CC1)C2										21.7 mL/min/kg

Other lines, results leading:

Ratio IC50 (Homo sapiens [1])	IC50 [2]	hepatocyte CLint at 0.5 µM [3]	IC50 [4]	IC50 [5]	inhibition at 30 min, 10 µM (CYP3A4)	IC50 [6]	Ratio IC50 (Homo sapiens [7])	hepatocyte intrinsic clearance [8]	CLH [9]	SMILES
124	50 nM	4.89 µL/min/1e6 cells	376 nM	512 nM	35%	3 nM		4.14 µL/min		C[C@@H](C1CC1)N1Cc2cc(-c3ccn4nc(N)c(C(=O)NC5CC5)c4n3)cc(S(=O)(=O)C3CCC3)c2C1=O
9	397 nM		20 nM	29 nM		2.1 nM	13			Cc1cc(-c2ccn3nc(N)c(C(=O)N[C@H]4CC[C@H](C(=O)O)CC4)c3n2)cc2c1C(=O)N([C@@H](C)C1CC1)C2
323	150 nM	6.52 µL/min/1e6 cells	2750 nM	3680 nM	55%	8.5 nM		3.65 µL/min		CC(C)[C@H](N1Cc2cc(-c3ccn4nc(N)c(C(=O)NC5CC5)c4n3)cc(NS(C)(=O)=O)c2C1=O)C(F)(F)F
322	54 nM	< 1.2 µL/min/1e6 cells	1480 nM	1010 nM	28%	4.6 nM	220	2.41 µL/min		CC(C)c1cc(-c2ccn3nc(N)c(C(=O)NC4CC4)c3n2)cc2c1C(=O)N([C@@H](C)C1CC1)C2
2780	88 nM	< 1.2 µL/min/1e6 cells	4580 nM	5360 nM	22%	1.7 nM		< 1.2 µL/min		CS(=O)(=O)Nc1cc(-c2ccn3nc(N)c(C(=O)NC4CC4)c3n2)cc2c1C(=O)N([C@@H](C1CC1)C(F)(F)F)C2
403	31 nM	2.91 µL/min/1e6 cells	1310 nM	2830 nM	62%	3.3 nM		6.67 µL/min		CC[C@H](N1Cc2cc(-c3ccn4nc(N)c(C(=O)NC5CC5)c4n3)cc(NS(C)(=O)=O)c2C1=O)C(F)(F)F
178	66 nM	4.23 µL/min/1e6 cells	829 nM	572 nM	38%	4.7 nM	122	2.97 µL/min		C[C@@H](C1CC1)N1Cc2cc(-c3ccn4nc(N)c(C(=O)NC5CC5)c4n3)cc(C3CC3)c2C1=O
